Test results as given in publication PMC7450057, “Enhancing intracellular accumulation and target engagement of PROTACs with reversible covalent chemistry” (Nature Communications, 2020).
Values joined by “and” are separate entries in the source; they are usually repeats but may differ in a detail not shown here. Equal values may be shown once. Read-outs that look alike come from different tables or passages of the source. Values belong to the compound of their own block, whether it stands above or below them.

Tests used:
[1] = molecular target: T1, BTK-NanoLuc fusion (Homo sapiens, UniProt Q06187); assay: NanoBRET BTK in-cell target engagement assay; type: cell-based; details: for K′P,D (relative intracellular accumulation coefficient): Kd (BTK)/IC50,TE (BTK)
T1 construct: host or cells: HEK 293T/17
How it was run: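 Tracer-displacement IC50 derived from background-corrected BRET ratio (450 nm donor, 610 nm acceptor) in live HEK293/T17 cells transfected with BTK-NanoLuc. Cells were exposed for 2 h at 37 °C to 1.0 µM tracer plus 5-fold serial dilutions of compound from 10 µM.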

[2] = test system: Jeko-1; assay: IC50 in MCL cell lines (Supplementary Table 2), Jeko-1; details: for IC50: Jeko-1, triplicates; for Cell Viability (%): Jeko-1 cells, replicate wells
[3] = molecular target: BTK (Homo sapiens, UniProt Q06187); assay: BTK degradation in MOLM-14 cells (western blot); type: cell-based; design: endogenous in cells; host or cells: MOLM-14; details: for BTK degradation (in words): MOLM-14 cells, 24 h (Fig. 2d)
[4] = test system: Maver-1; assay: IC50 in MCL cell lines (Supplementary Table 2), Maver-1; details: for IC50: Maver-1, triplicates; for Cell Viability (%): Maver-1 cells, replicate wells
[5] = test system: MOLM-14 cells; assay: Quantification of intracellular drug concentration by LC-MS; type: in vitro ADME; details: for Intracellular concentration: Concentration of compound, AVE / intracellular amount, AVE / intracellular amount / Intracellular concentration: Concentration of compound: 200 nM; for Intracellular concentration: Concentration of compound, AVE / intracellular amount, AVE: average of 3 replicates; for intracellular amount: initial amount 0.4000 nmol; for Intracellular concentration: Concentration of compound: sample volume 400 µL
Protocol: MOLM-14 cells were seeded at a density of 0.5 × 10^6 per mL in 2 mL medium. […] The samples were immediately centrifuged at 12,000 × g for 15 min at 4 °C, then removing the supernatant. In all, 400 μL of NP-40 lysis buffer was added to the cell pellet and mixed thoroughly. The mixtures were rocked for 1 h at 4 °C and centrifuged at 12,000 × g for 15 min at 4 °C. Then the supernatant was transferred to new EP tubes. In total, 20 µL supernatant was extracted with 180 µL of acetonitrile (containing internal standard: 250 nM of RNC-Ctrl) and centrifuged at the same conditions described above. Take 75 μL of supernatant for liquid chromatography-mass spectrometry analysis.
The mass spectrometer was operated in positive SIM ion mode (fragmentor 120 V; cycle time 0.6 s/cycle; Agilent Technologies 6130 Quadrupole LC/MS).

BTK, sequence (Q06187 whole entry): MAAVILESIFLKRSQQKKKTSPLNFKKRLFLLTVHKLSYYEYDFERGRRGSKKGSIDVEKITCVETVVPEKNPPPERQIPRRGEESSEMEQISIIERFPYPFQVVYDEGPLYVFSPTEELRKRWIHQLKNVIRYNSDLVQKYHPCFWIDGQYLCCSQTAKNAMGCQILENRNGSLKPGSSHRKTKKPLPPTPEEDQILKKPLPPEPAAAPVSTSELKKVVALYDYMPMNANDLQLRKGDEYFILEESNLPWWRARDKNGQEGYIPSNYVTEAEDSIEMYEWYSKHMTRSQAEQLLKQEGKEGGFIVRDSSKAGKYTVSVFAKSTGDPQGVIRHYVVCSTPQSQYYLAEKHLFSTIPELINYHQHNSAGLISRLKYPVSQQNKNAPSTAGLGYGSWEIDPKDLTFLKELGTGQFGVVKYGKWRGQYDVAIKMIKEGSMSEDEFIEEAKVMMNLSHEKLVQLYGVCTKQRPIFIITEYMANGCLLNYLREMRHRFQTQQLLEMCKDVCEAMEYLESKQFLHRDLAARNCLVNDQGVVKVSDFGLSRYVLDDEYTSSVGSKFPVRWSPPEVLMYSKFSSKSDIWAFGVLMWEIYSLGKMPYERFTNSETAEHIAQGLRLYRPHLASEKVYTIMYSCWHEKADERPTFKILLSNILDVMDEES
T1 sequence (Q06187 whole entry, the tested form may be a part): as the sequence (Q06187 whole entry) above

NanoBRET(%) ([1]; Figure 3d, 1.00E-05 M, triplicates): 3.378% and 4.061% and 7.763%
NanoBRET(%) ([1]; Figure 3d, 1.60E-08 M, triplicates): 68.6994% and 58.5265% and 79.8426%
NanoBRET(%) ([1]; Figure 3d, 2.00E-06 M, triplicates): 7.973% and 4.415% and 10.8959%
NanoBRET(%) ([1]; Figure 3d, 3.20E-09 M, triplicates): 72.0977% and 81.5236% and 73.9704%
NanoBRET(%) ([1]; Figure 3d, 8.00E-08 M, triplicates): 48.5638% and 40.5056% and 47.7559%
K′P,D (relative intracellular accumulation coefficient) [1]: 1.5 × 10^−1
IC50 ([1]; experiment of Fig. 3d, read-out: BTK target engagement IC50): 47 nM
IC50 [2]: 600 nM
Quantification anti-BTK / anti-β-actin (BTK level vs DMSO) ([3]; Figure 2d, DMSO = 100 (mean)): 83.2734
IC50 [4]: > 5000 nM
SMILES: CC(C)(C)C=C(C#N)C(=O)N1CCCC(n2nc(-c3ccc(Oc4ccccc4)cc3)c3c(N)ncnc32)C1 (centres unmarked) [RC-Ctrl]
Cell Viability (%) ([2]; 1.25E-06 M): 31.3102% and 33.1774% and 45.3843%
Cell Viability (%) ([2]; 1.56E-07 M): 69.2456% and 61.0172% and 73.2882%
Cell Viability (%) ([2]; 2.50E-06 M): 11.5927% and 9.314% and 11.5138%
Cell Viability (%) ([2]; 3.13E-07 M): 58.8318% and 42.4713% and 68.6832%
Cell Viability (%) ([2]; 5.00E-06 M): 5.458% and 5.865% and 4.45%
Cell Viability (%) ([2]; 6.25E-07 M): 52.1031% and 47.1602% and 45.3596%
Cell Viability (%) ([2]; 7.81E-08 M): 53.9062% and 67.1539% and 84.5751%
BTK degradation (in words) ([3]; 200 nM): Neither RC-Ctrl, nor pomalidomide, nor a combination of both caused BTK degradation
BTK degradation (in words) ([3]; 200 nM, listed as RC-1 warhead): neither the RC-1 warhead, nor pomalidomide, nor a combination of both caused BTK degradation
Cell Viability (%) ([4]; 1.25E-06 M): 92.5899% and 86.5612% and 87.595%
Cell Viability (%) ([4]; 1.56E-07 M): 103.384% and 106.186% and 101.772%
Cell Viability (%) ([4]; 2.50E-06 M): 81.7599% and 80.9854% and 82.1702%
Cell Viability (%) ([4]; 3.13E-07 M): 99.5605% and 94.4048% and 98.8352%
Cell Viability (%) ([4]; 5.00E-06 M): 60.4937% and 62.4464% and 56.8706%
Cell Viability (%) ([4]; 6.25E-07 M): 97.5323% and 94.4409% and 89.8332%
Cell Viability (%) ([4]; 7.81E-08 M): 103.555% and 102.055% and 101.769%

IC50 [2]: 600 nM
Quantification anti-BTK / anti-β-actin (BTK level vs DMSO) ([3]; Figure 2d, DMSO = 100 (mean)): 91.1107
BTK degradation (in words) ([3]; 200 nM): cannot degrade BTK in cells
IC50 [4]: 4200 nM
SMILES: CN1C(=O)CCC(N2C(=O)c3cccc(NCC(=O)NCCCN(C)C(C)(C)C=C(C#N)C(=O)N4CCCC(n5nc(-c6ccc(Oc7ccccc7)cc6)c6c(N)ncnc65)C4)c3C2=O)C1=O (centres unmarked) [RC-1-Me]
Cell Viability (%) ([2]; 1.25E-06 M): 36.268% and 32.7063% and 31.5519%
Cell Viability (%) ([2]; 1.56E-07 M): 68.2022% and 62.2702% and 73.2784%
Cell Viability (%) ([2]; 2.50E-06 M): 5.54% and 14.7844% and 6.721%
Cell Viability (%) ([2]; 3.13E-07 M): 71.0782% and 71.3298% and 71.3347%
Cell Viability (%) ([2]; 5.00E-06 M): 4.5335% and 3.7442% and 3.927%
Cell Viability (%) ([2]; 6.25E-07 M): 49.1754% and 57.0313% and 33.3624%
Cell Viability (%) ([2]; 7.81E-08 M): 77.062% and 93.1685% and 69.7463%
Cell Viability (%) ([4]; 1.25E-06 M): 75.2061% and 69.0199% and 79.2231%
Cell Viability (%) ([4]; 1.56E-07 M): 95.5665% and 93.8239% and 93.1905%
Cell Viability (%) ([4]; 2.50E-06 M): 67.4512% and 61.3175% and 56.7459%
Cell Viability (%) ([4]; 3.13E-07 M): 94.477% and 92.288% and 91.2083%
Cell Viability (%) ([4]; 5.00E-06 M): 42.5652% and 49.5981% and 48.479%
Cell Viability (%) ([4]; 6.25E-07 M): 91.2247% and 87.9954% and 86.7647%
Cell Viability (%) ([4]; 7.81E-08 M): 97.0795% and 100.847% and 94.9725%

NanoBRET(%) ([1]; Figure 3c, 1.00E-05 M, triplicates): 19.811% and 15.5465% and 15.3581%
NanoBRET(%) ([1]; Figure 3c, 1.60E-08 M, triplicates): 97.712% and 94.5586% and 94.4887%
NanoBRET(%) ([1]; Figure 3c, 2.00E-06 M, triplicates): 33.1128% and 33.4469% and 31.5012%
NanoBRET(%) ([1]; Figure 3c, 3.20E-09 M, triplicates): 87.6339% and 98.6398% and 114.053%
NanoBRET(%) ([1]; Figure 3c, 4.00E-07 M, triplicates): 69.4314% and 86.9635% and 77.822%
NanoBRET(%) ([1]; Figure 3c, 8.00E-08 M, triplicates): 100.734% and 107.362% and 104.968%
IC50 ([1]; HEK-293 cells, BTK tracer 1.0 µM, Table 1 / Fig. 3c, triplicates, read-out: BTK TE IC50,TE): 1270 nM
K′P,D (relative intracellular accumulation coefficient) [1]: 3.7 × 10^−3
intracellular accumulation of RC-1 relative to the compound ([1]; from K′P,D values, BTK (Table 1)): 40 folds
Intracellular concentration: Concentration of compound, AVE ([5]; 5 min): 0.0812 µM
intracellular amount, AVE ([5]; 5 min): 0.0325 nmol
Intracellular concentration: Concentration of compound ([5]; 5 min, single replicates): 0.0707 µM and 0.0946 µM and 0.0782 µM
Intracellular concentration: Concentration of compound, AVE ([5]; 15 min): 0.0738 µM
intracellular amount, AVE ([5]; 15 min): 0.0295 nmol
Intracellular concentration: Concentration of compound ([5]; 15 min, single replicates): 0.0714 µM and 0.0730 µM and 0.0769 µM
Intracellular concentration: Concentration of compound, AVE ([5]; 30 min): 0.0681 µM
intracellular amount, AVE ([5]; 30 min): 0.0272 nmol
Intracellular concentration: Concentration of compound ([5]; 30 min, single replicates): 0.0636 µM and 0.0688 µM and 0.0717 µM
Intracellular concentration: Concentration of compound, AVE ([5]; 60 min): 0.0458 µM
intracellular amount, AVE ([5]; 60 min): 0.0183 nmol
Intracellular concentration: Concentration of compound ([5]; 60 min, single replicates): 0.0457 µM and 0.0469 µM and 0.0450 µM
Intracellular concentration: Concentration of compound, AVE ([5]; 90 min): 0.0470 µM
intracellular amount, AVE ([5]; 90 min): 0.0188 nmol
Intracellular concentration: Concentration of compound ([5]; 90 min, single replicates): 0.0488 µM and 0.0453 µM and 0.0468 µM
Intracellular concentration: Concentration of compound, AVE ([5]; 120 min): 0.0445 µM
intracellular amount, AVE ([5]; 120 min): 0.0178 nmol
Intracellular concentration: Concentration of compound ([5]; 120 min, single replicates): 0.0414 µM and 0.0423 µM and 0.0498 µM
Intracellular concentration: Concentration of compound, AVE ([5]; 240 min): 0.0399 µM
intracellular amount, AVE ([5]; 240 min): 0.0160 nmol
Intracellular concentration: Concentration of compound ([5]; 240 min, single replicates): 0.0402 µM and 0.0408 µM and 0.0387 µM
Cellular concentration ([5]; 5 min, Mean): 0.0325 nmol/million cells
Cellular concentration ([5]; 15 min, Mean): 0.0295 nmol/million cells
Cellular concentration ([5]; 30 min, Mean): 0.0272 nmol/million cells
Cellular concentration ([5]; 60 min, Mean): 0.0183 nmol/million cells
Cellular concentration ([5]; 90 min, Mean): 0.0188 nmol/million cells
Cellular concentration ([5]; 120 min, Mean): 0.0178 nmol/million cells
Quantification anti-BTK / anti-β-actin (BTK level vs DMSO) ([3]; Figure 2b, 8 nM, duplicates): 97.1575 and 95.3789
Quantification anti-BTK / anti-β-actin (BTK level vs DMSO) ([3]; Figure 2b, 40 nM, duplicates): 69.0679 and 73.2452
Quantification anti-BTK / anti-β-actin (BTK level vs DMSO) ([3]; Figure 2b, 200 nM, duplicates): 33.5661 and 27.9942
SMILES: CN(CCCNC(=O)CNc1cccc2c1C(=O)N(C1CCC(=O)NC1=O)C2=O)CCCC(=O)N1CCCC(n2nc(-c3ccc(Oc4ccccc4)cc3)c3c(N)ncnc32)C1 (centres unmarked) [RNC-1]
intracellular amount ([5]; 5 min, single replicates): 0.0283 nmol and 0.0378 nmol and 0.0313 nmol
intracellular amount ([5]; 15 min, single replicates): 0.0286 nmol and 0.0292 nmol and 0.0308 nmol
intracellular amount ([5]; 30 min, single replicates): 0.0255 nmol and 0.0275 nmol and 0.0287 nmol
intracellular amount ([5]; 60 min, single replicates): 0.0183 nmol and 0.0188 nmol and 0.0180 nmol
intracellular amount ([5]; 90 min, single replicates): 0.0195 nmol and 0.0181 nmol and 0.0187 nmol
intracellular amount ([5]; 120 min, single replicates): 0.0166 nmol and 0.0169 nmol and 0.0199 nmol
intracellular amount ([5]; 240 min, single replicates): 0.0161 nmol and 0.0163 nmol and 0.0155 nmol
Cellular concentration ([5]; 5 min, single replicates, MOLM-14, 200 nM): 0.0313 nmol/million cells and 0.0283 nmol/million cells and 0.0378 nmol/million cells
Cellular concentration ([5]; 15 min, single replicates, MOLM-14, 200 nM): 0.0308 nmol/million cells and 0.0286 nmol/million cells and 0.0292 nmol/million cells
Cellular concentration ([5]; 30 min, single replicates, MOLM-14, 200 nM): 0.0287 nmol/million cells and 0.0255 nmol/million cells and 0.0275 nmol/million cells
Cellular concentration ([5]; 60 min, single replicates, MOLM-14, 200 nM): 0.0180 nmol/million cells and 0.018 nmol/million cells and 0.0183 nmol/million cells and 0.0188 nmol/million cells
Cellular concentration ([5]; 90 min, single replicates, MOLM-14, 200 nM): 0.0187 nmol/million cells and 0.0195 nmol/million cells and 0.0181 nmol/million cells
Cellular concentration ([5]; 120 min, single replicates, MOLM-14, 200 nM): 0.0199 nmol/million cells and 0.0166 nmol/million cells and 0.0169 nmol/million cells
Cellular concentration ([5]; 240 min, Mean): 0.0160 nmol/million cells and 0.016 nmol/million cells
Cellular concentration ([5]; 240 min, single replicates, MOLM-14, 200 nM): 0.0155 nmol/million cells and 0.0161 nmol/million cells and 0.0163 nmol/million cells
